Calls of active or inactive are those of the source. No rule for the calls is given here.
Each compound was assayed on 697B cells, BCR-induced NF-kB luciferase reporter luminescence (assay: B-cell receptor NF-kB reporter inhibition – 697B cells, luciferase luminescence, dose response (AID 489023)).
In the case of CCOC(=O)C1CCN(c2ncnc3c2cnn3-c2ccc(OC)cc2)CC1, the IC50 is reported as > 80 µM (inactive).
In the case of COc1ccc(NS(=O)(=O)c2ccc(-c3coc(C)n3)cc2)cc1OC, the IC50 is reported as > 80 µM (inactive).
In the case of Cn1c(=O)cc(OCCCC(=O)NC2CCCC2)c2ccccc21, the IC50 is reported as 34.4 µM (inactive).
In the case of COc1ccc(S(=O)(=O)Nc2cc3c(C(C)=O)c(C)oc3c3ccccc23)cc1, the IC50 is reported as > 80 µM (inactive).
In the case of O=C(O)CCSc1ncnc2sc(-c3ccccc3)cc12, the IC50 is reported as 2.29 µM.
For C=C1C(=O)[C@@]23C[C@H]4[C@@H]5[C@@]6(C)CCC[C@@]57[C@@H]2[C@@H](O)[C@@H]1C[C@H]3[C@H]7N4C6, the IC50 was 2.89 µM.
For COc1ccc(-c2noc(CCCC(=O)O)n2)cc1, the IC50 was 2.14 µM.
CCCCCOc1ccc(NC(=O)C(=O)NCCCn2ccnc2)cc1 was tested, and the IC50 was 4.78 µM.
With Cc1ccc(S(=O)(=O)Nc2ccc3c(c2)n(C)c(=O)n3C)cc1 the IC50 was > 80 µM (inactive).
Cc1c(CCC(=O)N2CCC(C(=O)O)CC2)c(=O)oc2cc3oc4c(c3cc12)CCCC4 was tested, and the IC50 was 14 µM.
Work on O=C(CCCc1nc(-c2ccccc2Cl)no1)NC1CCCC1 yielded an IC50 of 1.25 µM.
In the case of Cc1ccc(-n2c(-c3ccccc3)c[n+]3c2CCc2ccccc2-3)c(C)c1, the IC50 is reported as 56.7 µM (inactive).
For CCOC(=O)C(=CNc1cc(C)ccc1C)C(=O)OCC, the IC50 was 49.2 µM (inactive).
In the case of CCOCCCNc1nc2c(C)cccn2c(=O)c1/C=C1\SC(=S)N(C(C)CC)C1=O (centres undefined), the IC50 is reported as 36.3 µM (inactive).
Cc1csc(NC(=O)CCc2c(C)nc3cc(-c4ccc(Cl)cc4)nn3c2C)n1 was tested, and the IC50 was 4.77 µM.
COc1ccc(-n2nnnc2S(=O)(=O)CC(=O)N2CCCCC2)cc1 showed an IC50 of 0.79 µM.
For CCc1ccc(-c2nc(CSCC(=O)NC3CC3)c(C)o2)cc1, the IC50 was 0.41 µM.
CCc1ccc(/C=C2\SC(=S)N(CCCC(=O)Nc3ccccn3)C2=O)cc1 was tested, and the IC50 was 0.55 µM.
COc1ccc(C(=O)Nc2nnc(Cc3cccs3)s2)cc1OC was tested, and the IC50 was > 80 µM (inactive).
N=c1c(C(=O)NC2CCCC2)cc2c(=O)n3ccccc3nc2n1CCN1CCOCC1 was tested, and the IC50 was > 80 µM (inactive).
In the case of CC1CCN(CCCNC(=O)COc2cc(=O)n(C)c3ccccc23)CC1, the IC50 is reported as > 80 µM (inactive).
In the case of CCCCCCn1c(-c2ccco2)nc2oc3cc(OC)ccc3c(=O)c2c1=O, the IC50 is reported as > 80 µM (inactive).
With Cn1c(=O)n(C)c2cc(NS(=O)(=O)c3ccccc3)ccc21 the IC50 was 38.3 µM (inactive).
In the case of CN1C(=O)c2cccc3c(S(=O)(=O)Nc4ccccc4F)ccc1c23, the IC50 is reported as 57.4 µM (inactive).
Cn1nc(-c2ccc(N3CCOCC3)c(NS(=O)(=O)c3ccccc3)c2)c2ccccc2c1=O was tested, and the IC50 was > 80 µM (inactive).
In the case of COC(=O)C1=C(c2ccc(-c3ccccc3)c(F)c2)C[C@@H]2CC[C@H]1N2C(=O)N1CCCC1, the IC50 is reported as 73.9 µM (inactive).
With CCn1c(=S)[nH]c2cc(S(=O)(=O)N3CCCCC3)ccc21 the IC50 was 31 µM (inactive).
Cn1c(=NC(=O)CCl)sc2ccccc21 was tested, and the IC50 was 0.59 µM.
For COc1cc(-c2nc(C(=O)NCC3CCCO3)cc3c2[nH]c2ccccc23)cc(OC)c1OC (centres undefined), the IC50 was 12.2 µM.
With Cn1c(=O)n(C)c2cc(NC(=O)CSc3nnc(-c4ccccc4O)n3-c3ccccc3)ccc21 the IC50 was > 80 µM (inactive).
In the case of COc1ccc(C=C(C(C)=O)C(C)=O)cc1OC, the IC50 is reported as 57.7 µM (inactive).
COc1ccc(-c2ccc(N(C)C)cc2)cc1[C@H]1[C@H]2C=CC[C@@H](C)[C@@H]2C(=O)N1Cc1ccccc1 was tested, and the IC50 was > 80 µM (inactive).
For COc1ccc(-n2c(-c3ccc(Br)cc3)c[n+]3c2CCc2ccccc2-3)cc1, the IC50 was > 80 µM (inactive).
With Cc1nn(C(C)(C)C)c(C)c1/C=N/OC(=O)Nc1ccc(Cl)c(Cl)c1 the IC50 was 0.74 µM.
CCOC(=O)C1CCN(c2ncnc3c2cnn3-c2ccc(Cl)cc2)CC1 showed an IC50 of 0.82 µM.
With CCOC(=O)N1CCN(CC(=O)Nc2ccc([N+](=O)[O-])cc2C(=O)Nc2ccccc2F)CC1 the IC50 was 29.1 µM (inactive).
CCN1C(=O)Nc2cccc3cccc1c23 was tested, and the IC50 was 35.2 µM (inactive).
For Cc1cnc(NC(=O)Nc2ccc(Cl)cc2)s1, the IC50 was > 80 µM (inactive).
Cn1c(=O)cc(OCCCC(=O)NCc2ccccn2)c2ccccc21 was tested, and the IC50 was > 80 µM (inactive).
O=C(Oc1cccc(/C=N/Nc2nc(N3CCOCC3)nc(N3CCOCC3)n2)c1)c1ccco1 gave an IC50 of 18.4 µM.
For Cc1ccc(-c2nn3c(C)nnc3c3ccccc23)cc1S(=O)(=O)NC(C)(C)CO, the IC50 was 29.6 µM (inactive).
With O=C(C1CCC1)N1CCN(S(=O)(=O)c2ccc([N+](=O)[O-])cc2)CC1 the IC50 was > 80 µM (inactive).
In the case of COc1cc(C[C@@H]2C(=O)OC[C@H]2Cc2ccc(OC)c(OC)c2)ccc1O, the IC50 is reported as > 80 µM (inactive).
O=C(O)CCn1c(O)c(C=C2N=c3ccccc3=N2)sc1=S gave an IC50 of 17 µM.
For CCOC(=O)/C=C(\C)Sc1cc(=O)oc2ccccc12, the IC50 was 1.61 µM.
Cc1nc2cc(-c3cccc(F)c3)nn2c(C)c1CCC(=O)NC(C)CCc1ccco1 (centres undefined) was tested, and the IC50 was 13.8 µM.
In the case of CN(C)c1cc[n+](Cc2c(Cl)cccc2Cl)cc1, the IC50 is reported as > 80 µM (inactive).
In the case of COc1cccc(-c2noc(CCC(=O)NCCc3ccccc3)n2)c1, the IC50 is reported as 5.65 µM.
With Cc1[nH]c2ccccc2c1C(=O)CN1C(=O)NC2(CC(C)CC(C)(C)C2)C1=O (centres undefined) the IC50 was 6.97 µM.

— PubChem BioAssay AID489023 (Sanford-Burnham Center for Chemical Genomics, 2010)
